Patent US20080051429A1, “USE OF 4-AMINO-PIPERIDINES FOR TREATING SLEEP DISORDERS” (priority 2006, published 2008)

Assays:
Test in all cases: R-SAT broad profiling
Format in all cases: cell-based
5-HT4 = molecular target: T1, 5-HT4 (Homo sapiens, UniProt Q13639); conditions: read-out: pEC50/pIC50 (converted)
T1 construct: expressed in transfected cells
Procedure: (§1) The functional receptor assay, Receptor Selection and Amplification Technology (R-SAT), was used (with minor modifications from that previously described U.S. Pat. No. 5,707,798) to screen compounds for efficacy at the 5-HT2A receptor. Briefly, NIH3T3 cells were grown in 96 well tissue culture plates to 70-80% confluence. Cells were transfected for 12-16 hours with plasmid DNAs using superfect (Qiagen Inc.) as per manufacture's protocols. R-SAT's were generally performed with 50 ng/well of receptor and 20 ng/well of Beta-galactosidase plasmid DNA. All receptor and G-protein constructs used were in the pSI mammalian expression vector (Promega Inc) as described in U.S. Pat. No. 5,707,798. The 5HT2A receptor gene was amplified by nested PCR from brain cDNA using the oligodeoxynucleotides based on the published sequence (see Saltzman et. al. Biochem. Biophys. Res. Comm. 181:1469-78 (1991)). Large-scale transfections, cells were transfected for 12-16 hours, then trypsinized and frozen in DMSO. Frozen cells were later thawed, plated at 10,000-40,000 cells per well of a 96 well plate that contained drug. With both methods, cells were then grown in a humidified atmosphere with 5% ambient CO2 for five days. Media was then removed from the plates and marker gene activity was measured by the addition of the beta-galactosidase substrate ONPG (in PBS with 5% NP-40). The resulting colorimetric reaction was measured in a spectrophotometric plate reader (Titertek Inc.)at […]. All data were analyzed using the computer program XLFit (IDBSm). Efficacy is the percent maximal repression compared to repression by a control compound (ritanserin in the case of 5HT2A). pIC50 is the negative of the log(IC50), where IC50 is the calculated concentration in Molar that produces 50% maximal repression.
(§2) The R-SAT assay (described above in example 136) was used to investigate the selectivity of 2-(4-Methoxyphenyl)-N-(4-methylbenzyl)-N-(1-methylpiperidin-4-yl)acetamide hydrochloride.

5-HT6 = molecular target: T2, 5-HT6 (Homo sapiens, UniProt P50406); conditions: read-out: pEC50/pIC50 (converted)
T2 construct: expressed in transfected cells
T2 sequence (P50406 whole entry, species assumed): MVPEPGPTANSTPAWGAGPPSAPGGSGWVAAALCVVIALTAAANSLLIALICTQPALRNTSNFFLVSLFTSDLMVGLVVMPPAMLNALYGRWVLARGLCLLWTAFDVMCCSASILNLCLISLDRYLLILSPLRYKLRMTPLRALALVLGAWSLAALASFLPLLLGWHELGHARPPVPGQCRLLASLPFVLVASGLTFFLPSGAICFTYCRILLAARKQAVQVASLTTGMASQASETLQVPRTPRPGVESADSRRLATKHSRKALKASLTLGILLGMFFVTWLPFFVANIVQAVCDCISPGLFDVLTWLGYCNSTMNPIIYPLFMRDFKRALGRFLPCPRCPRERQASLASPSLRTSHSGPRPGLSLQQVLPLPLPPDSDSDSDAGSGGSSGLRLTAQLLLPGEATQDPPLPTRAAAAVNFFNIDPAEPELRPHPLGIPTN
Procedure: as §1, §2

CCK-A = molecular target: T3, CCK-A (Homo sapiens, UniProt P32238); conditions: agonist; read-out: pEC50/pIC50 (converted)
T3 construct: expressed in transfected cells; host or cells: NIH3T3
Procedure: as §1, §2

D1 = molecular target: T4, D1 (Homo sapiens, UniProt P21728); conditions: read-out: pEC50/pIC50 (converted)
T4 construct: expressed in transfected cells; host or cells: NIH3T3
T4 sequence (P21728 whole entry): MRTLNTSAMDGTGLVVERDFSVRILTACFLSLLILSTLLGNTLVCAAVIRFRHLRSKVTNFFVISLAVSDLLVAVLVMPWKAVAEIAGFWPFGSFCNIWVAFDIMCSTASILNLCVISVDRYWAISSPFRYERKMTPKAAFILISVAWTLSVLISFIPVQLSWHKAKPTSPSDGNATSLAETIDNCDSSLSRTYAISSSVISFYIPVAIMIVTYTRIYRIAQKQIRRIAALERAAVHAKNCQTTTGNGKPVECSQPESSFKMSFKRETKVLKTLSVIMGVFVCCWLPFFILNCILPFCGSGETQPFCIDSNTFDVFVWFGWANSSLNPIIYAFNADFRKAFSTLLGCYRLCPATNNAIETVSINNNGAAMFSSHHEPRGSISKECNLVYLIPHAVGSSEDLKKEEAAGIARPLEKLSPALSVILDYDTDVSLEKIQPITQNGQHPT
Procedure: as §1, §2

Histamine 1 = molecular target: T5, Histamine 1 (Homo sapiens, UniProt P35367); conditions: read-out: pEC50/pIC50 (converted)
T5 construct: expressed in transfected cells; host or cells: NIH3T3
T5 sequence (P35367 whole entry): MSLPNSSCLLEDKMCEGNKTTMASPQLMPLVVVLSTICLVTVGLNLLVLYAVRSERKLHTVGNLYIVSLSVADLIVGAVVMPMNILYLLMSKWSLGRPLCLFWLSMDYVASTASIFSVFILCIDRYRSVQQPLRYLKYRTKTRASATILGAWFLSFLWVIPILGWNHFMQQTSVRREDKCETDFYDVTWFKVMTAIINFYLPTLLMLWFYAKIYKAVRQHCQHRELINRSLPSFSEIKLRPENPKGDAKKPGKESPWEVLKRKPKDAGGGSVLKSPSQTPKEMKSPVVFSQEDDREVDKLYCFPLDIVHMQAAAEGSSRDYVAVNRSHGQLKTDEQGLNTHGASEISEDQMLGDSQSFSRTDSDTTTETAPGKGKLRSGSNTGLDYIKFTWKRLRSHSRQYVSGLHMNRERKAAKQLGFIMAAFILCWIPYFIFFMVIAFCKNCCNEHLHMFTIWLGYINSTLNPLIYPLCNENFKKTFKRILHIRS
Procedure: as §1, §2

Histamine 2 = molecular target: T6, Histamine 2 (Homo sapiens, UniProt P25021); conditions: read-out: pEC50/pIC50 (converted)
T6 construct: expressed in transfected cells; host or cells: NIH3T3
T6 sequence (P25021 whole entry): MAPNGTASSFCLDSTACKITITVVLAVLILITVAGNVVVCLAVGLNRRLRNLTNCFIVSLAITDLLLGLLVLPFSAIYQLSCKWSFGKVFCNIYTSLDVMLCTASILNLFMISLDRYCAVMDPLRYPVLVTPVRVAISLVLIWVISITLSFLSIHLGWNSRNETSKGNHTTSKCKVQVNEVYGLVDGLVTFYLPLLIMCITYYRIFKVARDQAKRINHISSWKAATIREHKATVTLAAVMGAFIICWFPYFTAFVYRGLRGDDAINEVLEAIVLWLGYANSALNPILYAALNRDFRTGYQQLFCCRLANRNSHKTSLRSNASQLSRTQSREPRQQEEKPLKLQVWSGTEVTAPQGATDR
Procedure: as §1, §2

Histamine 3 = molecular target: T7, Histamine 3 (Homo sapiens, UniProt Q9Y5N1); conditions: read-out: pEC50/pIC50 (converted)
T7 construct: expressed in transfected cells; host or cells: NIH3T3
T7 sequence (Q9Y5N1 whole entry): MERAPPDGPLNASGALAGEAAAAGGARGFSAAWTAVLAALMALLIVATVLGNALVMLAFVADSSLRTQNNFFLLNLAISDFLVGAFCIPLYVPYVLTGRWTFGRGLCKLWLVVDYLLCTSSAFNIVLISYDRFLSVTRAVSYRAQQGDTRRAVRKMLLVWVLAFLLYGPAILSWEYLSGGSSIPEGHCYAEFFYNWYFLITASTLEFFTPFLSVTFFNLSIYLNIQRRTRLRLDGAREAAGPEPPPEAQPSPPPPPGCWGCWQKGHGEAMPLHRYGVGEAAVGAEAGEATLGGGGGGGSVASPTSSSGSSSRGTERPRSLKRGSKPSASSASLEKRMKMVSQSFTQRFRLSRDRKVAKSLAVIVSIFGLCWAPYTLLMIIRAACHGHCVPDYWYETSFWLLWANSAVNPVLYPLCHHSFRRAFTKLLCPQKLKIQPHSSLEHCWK
Procedure: as §1, §2

K-opiod = molecular target: T8, K-opiod (Homo sapiens, UniProt P41145); conditions: agonist; read-out: pEC50/pIC50 (converted)
T8 construct: expressed in transfected cells; host or cells: NIH3T3
Procedure: as §1, §2

Vasopressin1A = molecular target: T9, Vasopressin1A (Homo sapiens, UniProt P37288); conditions: agonist; read-out: pEC50/pIC50 (converted)
T9 construct: expressed in transfected cells; host or cells: NIH3T3
T9 sequence (P37288 whole entry): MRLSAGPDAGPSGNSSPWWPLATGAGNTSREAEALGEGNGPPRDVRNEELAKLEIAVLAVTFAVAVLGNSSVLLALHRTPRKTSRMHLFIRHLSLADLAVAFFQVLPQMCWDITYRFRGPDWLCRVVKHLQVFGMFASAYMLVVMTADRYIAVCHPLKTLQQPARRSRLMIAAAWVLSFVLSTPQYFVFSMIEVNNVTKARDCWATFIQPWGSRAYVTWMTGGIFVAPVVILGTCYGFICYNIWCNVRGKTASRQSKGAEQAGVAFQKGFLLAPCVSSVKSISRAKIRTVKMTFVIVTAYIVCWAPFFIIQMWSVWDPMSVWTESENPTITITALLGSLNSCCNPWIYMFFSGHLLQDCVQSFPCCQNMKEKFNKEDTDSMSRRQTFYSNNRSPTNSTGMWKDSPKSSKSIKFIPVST
Procedure: as §1, §2

alpha 2C = molecular target: T10, alpha 2C (Homo sapiens, UniProt P18825); conditions: read-out: pEC50/pIC50 (converted)
T10 construct: expressed in transfected cells; host or cells: NIH3T3
T10 sequence (P18825 1-462): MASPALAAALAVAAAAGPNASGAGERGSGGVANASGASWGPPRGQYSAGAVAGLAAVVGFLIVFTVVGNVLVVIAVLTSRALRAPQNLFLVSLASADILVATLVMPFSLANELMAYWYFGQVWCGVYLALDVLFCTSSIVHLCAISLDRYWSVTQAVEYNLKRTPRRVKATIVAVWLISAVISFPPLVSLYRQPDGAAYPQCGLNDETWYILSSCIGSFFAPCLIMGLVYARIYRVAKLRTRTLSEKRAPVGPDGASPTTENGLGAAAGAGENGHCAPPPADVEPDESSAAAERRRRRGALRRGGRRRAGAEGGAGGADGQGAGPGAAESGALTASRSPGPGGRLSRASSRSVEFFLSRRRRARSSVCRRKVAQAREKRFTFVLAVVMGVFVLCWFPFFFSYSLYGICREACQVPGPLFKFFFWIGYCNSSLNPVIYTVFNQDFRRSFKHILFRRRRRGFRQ
Procedure: as §1, §2

alpha-1A(a/c) = molecular target: T11, alpha-1A(a/c) (Homo sapiens, UniProt P35348); conditions: read-out: pEC50/pIC50 (converted)
T11 construct: expressed in transfected cells; host or cells: NIH3T3
T11 sequence (P35348 whole entry): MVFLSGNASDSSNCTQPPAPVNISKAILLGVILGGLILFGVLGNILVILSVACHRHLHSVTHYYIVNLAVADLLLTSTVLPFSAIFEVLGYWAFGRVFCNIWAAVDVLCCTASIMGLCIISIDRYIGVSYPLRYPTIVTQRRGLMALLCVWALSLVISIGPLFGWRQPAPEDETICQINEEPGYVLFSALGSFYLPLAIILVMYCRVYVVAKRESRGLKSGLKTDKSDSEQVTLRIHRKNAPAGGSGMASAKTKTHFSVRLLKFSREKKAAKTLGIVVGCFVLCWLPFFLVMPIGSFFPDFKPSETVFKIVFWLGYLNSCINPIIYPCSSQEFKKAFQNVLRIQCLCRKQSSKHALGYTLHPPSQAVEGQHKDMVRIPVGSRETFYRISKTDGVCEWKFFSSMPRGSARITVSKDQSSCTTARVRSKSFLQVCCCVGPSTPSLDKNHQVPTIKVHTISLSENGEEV
Procedure: as §1, §2

beta 1 = molecular target: T12, beta 1 (Homo sapiens, UniProt P08588); conditions: read-out: pEC50/pIC50 (converted)
T12 construct: expressed in transfected cells; host or cells: NIH3T3
T12 sequence (P08588 whole entry): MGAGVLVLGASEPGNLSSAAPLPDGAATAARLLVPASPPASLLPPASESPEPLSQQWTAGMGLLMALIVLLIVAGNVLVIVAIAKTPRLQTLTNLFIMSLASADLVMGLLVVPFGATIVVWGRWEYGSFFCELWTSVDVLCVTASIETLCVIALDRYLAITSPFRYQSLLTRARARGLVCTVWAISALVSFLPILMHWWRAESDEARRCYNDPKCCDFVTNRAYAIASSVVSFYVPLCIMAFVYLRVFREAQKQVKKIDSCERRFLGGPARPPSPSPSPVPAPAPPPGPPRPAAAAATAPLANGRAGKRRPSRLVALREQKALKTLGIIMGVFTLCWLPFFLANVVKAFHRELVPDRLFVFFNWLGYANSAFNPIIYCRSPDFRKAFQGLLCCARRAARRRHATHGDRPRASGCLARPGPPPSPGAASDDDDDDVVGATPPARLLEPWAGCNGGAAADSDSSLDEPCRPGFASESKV
Procedure: as §1, §2

endothelinB = molecular target: T13, endothelinB (Homo sapiens, UniProt P24530); conditions: agonist; read-out: pEC50/pIC50 (converted)
T13 construct: expressed in transfected cells; host or cells: NIH3T3
T13 sequence (P24530 27-442): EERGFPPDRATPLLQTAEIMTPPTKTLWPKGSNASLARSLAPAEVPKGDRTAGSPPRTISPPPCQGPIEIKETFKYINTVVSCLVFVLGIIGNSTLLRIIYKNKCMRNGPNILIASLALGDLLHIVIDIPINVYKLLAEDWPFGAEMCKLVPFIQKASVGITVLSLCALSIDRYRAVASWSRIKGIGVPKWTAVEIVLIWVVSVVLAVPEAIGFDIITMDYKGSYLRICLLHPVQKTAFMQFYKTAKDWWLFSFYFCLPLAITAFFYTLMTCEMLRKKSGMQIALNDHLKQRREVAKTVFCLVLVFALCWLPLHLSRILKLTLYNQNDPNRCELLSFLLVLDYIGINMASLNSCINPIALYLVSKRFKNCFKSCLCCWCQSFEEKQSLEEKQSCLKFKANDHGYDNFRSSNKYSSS
Procedure: as §1, §2

m1 = molecular target: T14, m1 (Homo sapiens, UniProt P11229); conditions: read-out: pEC50/pIC50 (converted)
T14 construct: expressed in transfected cells; host or cells: NIH3T3
T14 sequence (P11229 1-460): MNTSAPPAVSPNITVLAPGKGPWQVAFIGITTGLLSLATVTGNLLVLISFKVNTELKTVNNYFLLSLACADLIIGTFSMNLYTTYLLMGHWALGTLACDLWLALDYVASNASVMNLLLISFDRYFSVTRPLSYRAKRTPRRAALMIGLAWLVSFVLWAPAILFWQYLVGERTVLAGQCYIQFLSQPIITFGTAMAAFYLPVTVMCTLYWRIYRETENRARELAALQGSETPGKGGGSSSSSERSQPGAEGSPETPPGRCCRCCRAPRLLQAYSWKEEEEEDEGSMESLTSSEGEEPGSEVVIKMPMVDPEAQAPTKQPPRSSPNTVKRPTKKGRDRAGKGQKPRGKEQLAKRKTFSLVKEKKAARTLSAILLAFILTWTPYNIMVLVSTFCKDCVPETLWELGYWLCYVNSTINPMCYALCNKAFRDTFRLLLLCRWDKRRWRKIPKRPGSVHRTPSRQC
Procedure: as §1, §2

m3 = molecular target: T15, m3 (Homo sapiens, UniProt P20309); conditions: read-out: pEC50/pIC50 (converted)
T15 construct: expressed in transfected cells; host or cells: NIH3T3
T15 sequence (P20309 whole entry): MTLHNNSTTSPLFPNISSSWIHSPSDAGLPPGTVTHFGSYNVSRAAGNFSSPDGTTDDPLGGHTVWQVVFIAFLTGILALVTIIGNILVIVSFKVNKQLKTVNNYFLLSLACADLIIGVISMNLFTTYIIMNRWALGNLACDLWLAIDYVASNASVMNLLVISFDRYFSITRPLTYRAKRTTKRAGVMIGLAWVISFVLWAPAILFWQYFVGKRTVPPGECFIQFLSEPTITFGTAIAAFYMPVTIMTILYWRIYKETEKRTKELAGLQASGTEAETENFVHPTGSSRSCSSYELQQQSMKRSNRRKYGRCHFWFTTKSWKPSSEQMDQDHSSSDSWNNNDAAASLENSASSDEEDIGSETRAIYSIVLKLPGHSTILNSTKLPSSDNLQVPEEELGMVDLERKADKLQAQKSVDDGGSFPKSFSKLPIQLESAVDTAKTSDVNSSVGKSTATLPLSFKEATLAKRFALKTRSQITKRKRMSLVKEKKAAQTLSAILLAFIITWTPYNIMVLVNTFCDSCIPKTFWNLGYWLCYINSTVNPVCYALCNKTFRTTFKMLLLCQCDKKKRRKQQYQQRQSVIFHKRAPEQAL
Procedure: as §1, §2

T1 sequence (Q13639 1-387 isoform Q13639-2, species assumed): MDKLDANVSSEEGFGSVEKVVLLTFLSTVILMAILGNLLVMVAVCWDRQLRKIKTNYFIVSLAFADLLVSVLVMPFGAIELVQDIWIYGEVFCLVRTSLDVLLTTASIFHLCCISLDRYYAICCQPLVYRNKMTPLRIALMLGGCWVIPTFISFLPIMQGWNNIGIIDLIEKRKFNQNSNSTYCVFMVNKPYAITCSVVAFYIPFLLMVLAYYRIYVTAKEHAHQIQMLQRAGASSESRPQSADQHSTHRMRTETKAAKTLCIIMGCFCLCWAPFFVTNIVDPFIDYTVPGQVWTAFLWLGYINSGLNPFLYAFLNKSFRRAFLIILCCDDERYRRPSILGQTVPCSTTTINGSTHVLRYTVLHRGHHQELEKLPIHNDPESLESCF

COc1ccc(CC(=O)N(Cc2ccc(C)cc2)C2CCN(C)CC2)cc1 [Example 50ELH27, 2-(4-Methoxyphenyl)-N-(4-methylbenzyl)-N-(1-methylpiperidin-4-yl)acetamide]
EC50 (5-HT4; agonist): > 3.16 µM | IC50 (5-HT4; inverse agonist): > 3.16 µM | IC50 (5-HT6; Inv. Agonist): 0.158 µM | EC50 (5-HT6; agonist): > 3.16 µM | EC50 (CCK-A): > 3.16 µM | EC50 (D1; agonist): > 3.16 µM | IC50 (D1; antagonist): > 3.16 µM | IC50 (Histamine 1; Inv. Agonist): > 3.16 µM | EC50 (Histamine 1; agonist): > 3.16 µM | EC50 (Histamine 2; agonist): > 3.16 µM | IC50 (Histamine 2; antagonist): > 3.16 µM | EC50 (Histamine 3; agonist): > 3.16 µM | IC50 (Histamine 3; antagonist): > 3.16 µM | EC50 (K-opiod): > 3.16 µM | EC50 (Vasopressin1A): > 3.16 µM | EC50 (alpha 2C; agonist): > 3.16 µM | IC50 (alpha 2C; antagonist): > 3.16 µM | EC50 (alpha-1A(a/c); agonist): > 3.16 µM | IC50 (alpha-1A(a/c); antagonist): > 3.16 µM | EC50 (beta 1; agonist): > 3.16 µM | IC50 (beta 1; antagonist): > 3.16 µM | EC50 (endothelinB): > 3.16 µM | EC50 (m1; agonist): > 3.16 µM | IC50 (m1; antagonist): > 3.16 µM | EC50 (m3; agonist): > 3.16 µM | IC50 (m3; antagonist): > 3.16 µM
